Results: article PMC8449414, “Rational design of ASCT2 inhibitors using an integrated experimental-computational approach” (Proceedings of the National Academy of Sciences of the …, 2021)
“Also recorded” adds a separate entry of the source.

Molecular target: T1, hEAAT5 (Homo sapiens, UniProt O00341)
T1 construct: expressed in transfected cells; host or cells: HEK293 (ATCC CRL-11268), transient transfection
Experiment: Electrophysiology: SLC1 specificity, anion current in transfected HEK293 cells
Format: cell-based
Settings: for Binding affinity Ki / Ki: HEK293 cells, 0 mV, 10 mM glutamate and 130 mM NaSCN internal, No current = no outward current up to highest concentration tested (§ 20-50, || 100-400, # 1500-2500 µM); for Ki: read-out: Binding affinity Ki
Method: We also tested the specificity of Lc-BPE for ASCT2 over other SLC1 family members (ASCT1, EAAT1-3, and EAAT5).
Fig. S3. SLC-1 specificity of Lc-BPE. (A) Electrophysiological current responses to the application of 100 µM glutamate (red trace) or varying concentrations of Lc-BPE (black, blue and red traces) to rEAAT1-expressing cells HEK293 cells. (B-C) Dose response curves obtained from currents recorded a fter application of Lc-BPE extracellularly to cells transiently expressing hASCT2, rASCT2, hASCT1 (panel B) and rEAAT1, rEAAT2, rEAAT3 and hEAAT5 (panel C) respectively. For hASCT2, rASCT2 and hASCT1, intracellular pipette solution contained 10 mM alanine and 130 mM NaSCN. For rEAAT1, rEAAT2, rEAAT3 and hEAAT5, intracellular solution contained 10 mM glutamate and 130 mM NaSCN. Extracellular solution was the same for all the experiments (140 mM NaCl). The voltage was 0 mV. […]
Cell culture and transfection
Human embryonic kidney 293 (HEK293, ATCC CRL -11268) cells were cultured in DMEM media supplemented with 10% (v/v) fetal bovine serum (FBS), 2 mM glutamine, 1% penicillin streptomycin solution, 1 mM sodium pyruvate and non -essential amino acids. Cells were maintained at 370C in a fully humidified atmosphere containing 5% CO2. rASCT2, hASCT2, hASCT1, EAAT1, EAAT2, EAAT3, EAAT5 and YFP complementary DNAs were each used to transiently transfect HEK293 using POLYPLUS Jet-prime transfection reagent. Cells were analyzed using electrophysiological techniques 24-40 hours after transfection.
Electrophysiological techniques
Electrophysiological experiments were performed as described previously 1,2. Stock solutions of inhibitor was prepared in dimethyl sulfoxide (DMSO) up to 100 mM.
Dilutions to working concentrations were made using external buffer. The highest […]
cells. For rASCT2, hASCT2 and hASCT1, external buffer contained 140 mM NaCl, 2 mM MgCl2, 2 mM CaCl2, and 10 mM HEPES, pH 7.40 while internal pipette solution comprised of 130 mM NaSCN, 2 mM MgCl2, 10 mM EGTA, 10 mM HEPES and 10mM alanine, pH 7.40. For specificity experiments with EAAT1, EAAT2, EAAC1 and EAAT5, internal solution contained 10 mM glutamate instead of alanine. Compounds were applied to HEK293 cells expressing DNA of interest suspended from a current recording electrode in whole cell configuration44 through a rapid solution exchange device described previously45. Cells are immersed in external buffer bath used to dissolve the inhibitors. The open pipette resistance was between 3 and 6 MΩ. Series resistance was not compensated in these experiments due to relatively small currents. Current s traces were recorded using an Adams and List EPC7 amplifier and digitized using a Molecular Devices Digidata A/D converter.
Data analysis was performed as described previously 46. Linear and nonlinear curve fitting of the experimental data were analyzed using MicroCal Origin software. Linear plots were fitted using the general equation (y = a + bx) obtaining adjusted R 2 and Pearson’s r values. Nonlinear dose–response relationships were fitted with a Michaelis – Menten-like equation to obtain apparent Ki values in the absence of substrate. For competition studies, equation I = I1 + I2 [Inh]/(Ki + [Inh]) was used for fitting, where I1 is the alanine induced current without the inhibitor, and I2 is the maximum current in the presence of saturating inhibitor concentration, [Inh]max 1,2. At least five experiments were performed for each compound. Unless stated otherwise, the error bars in all our graphs represent mean ± SD .
ASCT2 expression and purification
Human ASCT2 (hASCT2) was produced in Pichia pastoris X-33 strain (Invitrogen) in fermentor26 and purified using DDM and CHS (Anatrace) and 1 mM L-glutamine (Merck) to maintain protein stability 27. Membranes representing ~1.5 g cells were solubilized in buffer A (25 mM Tris-HCl, pH 7.4, 300 mM NaCl, 10% (vol/vol) glycerol, 1 mM L - glutamine, 1% DDM and 0.1% CHS) for 1 h at 4 °C; ultracentrifuged (30 min, 442,907 × […]

T1 sequence (O00341 whole entry): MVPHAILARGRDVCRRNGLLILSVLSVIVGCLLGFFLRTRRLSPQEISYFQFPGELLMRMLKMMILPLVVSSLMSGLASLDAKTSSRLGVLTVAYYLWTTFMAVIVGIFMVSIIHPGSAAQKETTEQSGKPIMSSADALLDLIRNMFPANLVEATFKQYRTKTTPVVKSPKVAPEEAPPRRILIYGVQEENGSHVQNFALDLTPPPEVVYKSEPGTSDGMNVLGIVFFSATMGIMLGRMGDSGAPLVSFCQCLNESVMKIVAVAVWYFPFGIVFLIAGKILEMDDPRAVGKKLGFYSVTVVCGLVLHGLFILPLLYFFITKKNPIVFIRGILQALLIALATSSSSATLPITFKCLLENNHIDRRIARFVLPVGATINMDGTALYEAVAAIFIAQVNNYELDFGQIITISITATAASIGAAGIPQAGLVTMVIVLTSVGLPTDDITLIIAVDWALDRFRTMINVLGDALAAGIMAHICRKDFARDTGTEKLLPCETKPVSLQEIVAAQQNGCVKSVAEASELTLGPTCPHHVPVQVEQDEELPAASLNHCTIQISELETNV

Row | Binding affinity Ki | Ki [nM] | SMILES | Ki for hEAAT5 higher than for rASCT2 (hEAAT5 versus rASCT2) [fold]
1 |  | 2500 ± 930 | Cc1ccccc1-c1ccc(C(=O)O[C@@H]2CN[C@H](C(=O)O)C2)cc1 [ERA-6] | 
2 | No current |  | O=C(Nc1ccc(C(=O)O[C@@H]2CN[C@H](C(=O)O)C2)cc1)c1ccc(C(F)(F)F)cc1 [ERA-11] | 
3 |  | 6170 ± 1470 | O=C(O[C@@H]1CN[C@H](C(=O)O)C1)c1ccc(Oc2ccccc2)cc1 [ERA-16] | 
4 |  | 21300 ± 3150 | N[C@@H](COC(=O)c1ccc(NC(=O)c2ccccc2)cc1)C(=O)O [ERA-21] | 
5 | No current |  | N[C@@H](COC(=O)c1ccccc1)C(=O)O [ERA-25] | 
6 | No current |  | N[C@@H](COC(=O)c1cccnc1)C(=O)O [ERA-28] | 
7 | No current |  | O=C(O[C@@H]1CN[C@H](C(=O)O)C1)C(c1ccccc1)c1ccccc1 [ERA-29] | 
8 | No current |  | O=C(O[C@@H]1CN[C@H](C(=O)O)C1)c1ccc(OCc2ccccc2)cc1 [ERA-31] | 

Continued, compound first:

Row | SMILES | Binding affinity Ki | Ki [nM] | Ki for hEAAT5 higher than for rASCT2 (hEAAT5 versus rASCT2) [fold]
9 | O=C(O[C@@H]1CN[C@H](C(=O)O)C1)c1ccccc1-c1ccccc1 [ERA-3] | No current |  | 
10 | O=C(O[C@@H]1CN[C@H](C(=O)O)C1)c1ccc(-c2ccc(F)cc2)cc1 [ERA-4] |  | 2400 ± 720 | 
11 | O=C(O[C@@H]1CN[C@H](C(=O)O)C1)c1ccc(-c2ccc(C(F)(F)F)cc2)cc1 [ERA-5] |  | 1050 ± 150 | 
12 | O=C(O[C@@H]1CN[C@H](C(=O)O)C1)c1ccc(C(O)c2ccccc2)cc1 (stereo partly drawn) [ERA-9] | No current; also recorded: No inhibitory activity was detected |  | 
13 | O=C(O[C@H]1CN[C@H](C(=O)O)C1)c1ccc(C(=O)c2ccccc2)cc1 [ERA-35] | No current |  | 
14 | O=C(O[C@@H]1CN[C@H](C(=O)O)C1)c1ccc(-c2ccccc2)cc1 [Lc-BPE, L-cis hydroxyproline biphenyl ester] |  | 2220 ± 460 | ~3
